Results taken from patent US20200289554A1, “BIOORTHOGONAL COMPOUNDS COMPRISING A PROPARGYL GROUP FOR TREATING CANCER” (THE UNIVERSITY COURT OF THE UNIVERSITY OF EDINBURGH, priority 2016, published 2020).
Like-named read-outs stand apart in the source and are kept apart here.

Tests used:
A549 cells [1] = assay: Prodrug safety dose-response cell viability (PrestoBlue), A549; assay type: cell-based; details: Homo sapiens, 120 h, 5 days, no catalyst
Description: (§1) These cell lines were selected as these are primary malignancies against which the parental drugs are currently prescribed.
(§2) The toxicities of each active agent and prodrugs were compared by performing dose-response studies. […] Cell viability was analysed by fluoresce intensity (λex=540 nm; λem=590 nm) after 60-90 min incubation with PrestoBlue™ Reagent (Life Technologies).

U87G cells = assay: Prodrug safety dose-response cell viability (PrestoBlue), U87G; assay type: cell-based, human; details: U87G cells, 5 days, no catalyst, read-out: EC50 (cell viability)
Description: as §1, §2

T98 cells [2] = assay: Prodrug safety dose-response cell viability (PrestoBlue), T98; assay type: cell-based; details: Homo sapiens, 120 h, 5 days, no catalyst
Description: as §1, §2

A549 cells [3] = assay: BOOM conversion: prodrug + metal resins in cell culture, cell viability, A549; assay type: cell-based, human; details: Pd0-resin 1 mg/mL, 100 μM Vorinostat prodrugs, 1 μM Doxorubicin prodrugs, 0.3 μM Panobinostat prodrug
Description: Cell viabilities for each prodrug provided as a combination with palladium is presented in FIG. 3 and gold is presented in FIG. 33 in the right of each set of two bars. […] Cells were incubated in tissue culture media containing 0.1% (v/v) DMSO and: Pd^0, Au, or Pd/Au-resins (1 mg/mL, negative control); 100 μM of each prodrug (negative control); and Pd^0, Au, or Pd/Au-resins (1 mg/mL)+100 μM of each prodrug (BOOM reaction assay). Cells incubated in 0.1% (v/v) DMSO in media were used as untreated cell control.
(§3) Following 5 days treatment, cells were incubated with PrestoBlue™ Cell Viability Reagent (Life Technologies) for 60-90 min. Fluorescence intensity values were related to the untreated cells (100% cell viability). […] Cells incubated in 0.1% (v/v) DMSO in media were used as untreated cell control.
(§4) Cell viabilities for each prodrug provided as a combination with palladium is presented in FIG. 7 in the right of each set of two bars. Data for prodrug in the absence of palladium catalyst is also provided (the left bar of each set of two bars) for comparison along with negative controls (from left to right: DMSO, Pd^0 and Doxorubicin). Cells were incubated in tissue culture media containing 0.1% (v/v) DMSO and: Pd^0-resins (1 mg/mL, negative control); 1 μM of each prodrug (negative control); and Pd^0-resins (1 mg/mL)+1 μM of each prodrug (BOOM reaction assay). Cells incubated in 0.1% (v/v) DMSO in media were used as untreated cell control.
(§5) Following 5 days treatment, cells were incubated with PrestoBlue™ Cell Viability Reagent (Life Technologies) for 90 min. Fluorescence intensity values were related to the untreated cells (100% cell viability). Data are provided in FIG. 8 for cells incubated in tissue culture media containing 0.1% (v/v) DMSO and: Pd^0-resins (1 mg/mL, negative control); 0.3-3 μM of Doxorubicin prodrug for A549 and DU145 cell lines, 0.1-1 μM of Doxorubicin prodrug for T98 cell line (negative control); 0.3-3 μM of Doxorubicin for A549 and DU145 cell lines, 0.1-1 μM of Doxorubicin for T98 cell line (positive control); and Pd^0-resin (1 mg/mL)+Doxorubicin prodrug (BOOM reaction assay). Cells incubated in 0.1% (v/v) DMSO in media were used as untreated cell control.
as §4, with “21” for “7”, “panobinostat).” for “Doxorubicin).”
(§6) The toxigenic effect as a result of in situ generation of parental drug in cell culture was determined by incubating all cells in tissue culture media containing 0.1% (v/v) DMSO and a) Pd^0, Au, or Pd/Au-resin (1 mg/mL for all cells tested, negative control); b) prodrug (negative control); or c) Pd^0, Au, or Pd/Au-resin (1 mg/mL for all cells)+prodrug (reaction assay). Cells incubated in 0.1% (v/v) DMSO in media was used as an untreated cell reference standard (100% viability). A PrestoBlue® cell viability assay as described above was carried out and fluorescent intensities compared to the untreated cell control.
(§7) A dose response study was performed for each cell line keeping the quantity of Pd^0 resin constant (0.8 mg/mL for U87G and 1 mg/mL for the rest of cell lines). All cells were plated in Dulbecco's Modified Eagle Media (DMEM) supplemented with serum (10% FBS) and L-glutamine (2 mM). […]

T98 cells [4] = assay: BOOM conversion: prodrug + Pd0-resins in cell culture, cell viability, T98; assay type: cell-based, human; details: Pd0-resin 1 mg/mL, 1 μM Doxorubicin prodrugs
Description: as §3, §4, §5, §6, §7

DU145 cells = assay: BOOM conversion: prodrug + Pd0-resins in cell culture, cell viability, DU145; assay type: cell-based, human; details: Pd0-resin 1 mg/mL, 1 μM Doxorubicin prodrugs
Description: as §4
as §5, with “Cells incubated in 0.1% (v/v) DMSO in media were used as untreated cell control.” left out
The toxigenic effect as a result of in situ generation of parental drug in cell culture was determined by incubating all cells in tissue culture media containing 0.1% (v/v) DMSO and a) Pd^0, Au, or Pd/Au-resin (1 mg/mL for all cells tested, negative control); b) prodrug (negative control); or c) Pd^0, Au, or Pd/Au-resin (1 mg/mL for all cells)+prodrug (reaction assay). […]
(§8) A dose response study was performed for each cell line keeping the quantity of Pd^0 resin constant (0.8 mg/mL for U87G and 1 mg/mL for the rest of cell lines). […] Fluorescence intensity values (detected using a PerkinElmer EnVision 2101 multilabel reader with excitation filter at 540 nm and emissions filter at 590 nm) were determined relative to the untreated cell control.

MiaPaCa2 cells [5] = assay: BOOM conversion: prodrug + Pd0-resins in cell culture, cell viability, MiaPaCa2; assay type: cell-based, human; details: Pd0-resin 1 mg/mL, 0.03 μM Gemcitabine prodrugs
Description: as §4, with “FIG. 10” for “FIG. 7”, “and Gemcitabine).” for “and Doxorubicin).”, “control); 0.03” for “control); 1”, “(1 mg/mL)+0.03” for “(1 mg/mL)+1”
Following 5 days treatment, cells were incubated with PrestoBlue™ Cell Viability Reagent (Life Technologies) for 90 min. Fluorescence intensity values were related to the untreated cells (100% cell viability). Data are provided in FIG. 11 for cells incubated in tissue culture media containing 0.1% (v/v) DMSO and: Pd^0-resins (1 mg/mL, negative control); 0.003-0.3 μM of pPOBC-Gem (negative control); 0.003-0.3 μM of Gemcitabine (positive control); and Pd^0-resin (1 mg/mL)+pPOBC-Gem (BOOM reaction assay). Cells incubated in 0.1% (v/v) DMSO in media were used as untreated cell control.
The toxigenic effect as a result of in situ generation of parental drug in cell culture was determined by incubating all cells in tissue culture media containing 0.1% (v/v) DMSO and a) Pd^0, Au, or Pd/Au-resin (1 mg/mL for all cells tested, negative control); b) prodrug (negative control); or c) Pd^0, Au, or Pd/Au-resin (1 mg/mL for all cells)+prodrug (reaction assay). Cells incubated in 0.1% (v/v) DMSO in media was used as an untreated cell reference standard (100% viability). […]
as §8

MiaPaCa2 cells [6] = assay: Prodrug safety dose-response cell viability (PrestoBlue), MiaPaCa2; assay type: cell-based, human; details: Homo sapiens, MIA PaCa-2, 120 h, 5 days, no catalyst
Description: as §1, §2

O=C(CCCCCCC(=O)Nc1ccccc1)NOCc1ccccc1 [Benzyl-Vor, Benzyl-Vorinostat]
EC50 (A549 cells [1]): > 500 µM
EC50 (U87G cells; Homo sapiens, 120 h): > 500 µM
EC50 (T98 cells [2]): > 500 µM
toxigenic effect of prodrug + Pd0 resins (A549 cells [3]): only low levels of toxicity

COc1cccc2c1C(=O)c1c(O)c3c(c(O)c1C2=O)C[C@@](O)(C(=O)CO)C[C@@H]3OC1C[C@H](NC(=O)OCc2ccccc2)[C@H](O)[C@H](C)O1 (stereo partly shown) [Cbz-Dox, Carboxybenzyl Doxorubicin]
toxigenic effect of prodrug + Pd0 resins (A549 cells [3]): only low levels of toxicity
toxigenic effect of prodrug + Pd0 resins (T98 cells [4]): only low levels of toxicity
toxigenic effect of prodrug + Pd0 resins (DU145 cells): only low levels of toxicity

O=C(Nc1ccn(C2OC(CO)C(O)C2(F)F)c(=O)n1)OCc1ccccc1 (stereo not shown) [Cbz-Gem, reference compound]
toxigenic effect of prodrug + Pd0 resins (MiaPaCa2 cells [5]): only low levels of toxicity

COc1cc([C@@H]2c3cc4c(cc3[C@@H](O[C@@H]3O[C@@H]5CO[C@@H](C)O[C@H]5[C@H](O)[C@H]3O)[C@H]3COC(=O)[C@H]23)OCO4)cc(OC)c1O [Etoposide, reference compound]
EC50 (U87G cells; Homo sapiens, 120 h): 4.97 µM

Nc1ccn([C@@H]2O[C@H](CO)[C@@H](O)C2(F)F)c(=O)n1 [Gemcitabine, reference compound]
EC50 (MiaPaCa2 cells [6]): 0.013 µM

C#CCOc1ccc(CONC(=O)/C=C/c2ccc(CNCCc3c(C)[nH]c4ccccc34)cc2)cc1 [POB-Panob, Propargyloxybenzyl-Panobinostat]
EC50 (A549 cells [1]): 0.758 µM
toxigenic effect of prodrug + Pd0 resins (A549 cells [3]): strong toxigenic effect

Cc1[nH]c2ccccc2c1CCNCc1ccc(/C=C/C(=O)NO)cc1 [Panobinostat, reference compound]
EC50 (A549 cells [1]): 0.016 µM

CCc1c2c(nc3ccc(O)cc13)-c1cc3c(c(=O)n1C2)COC(=O)[C@]3(O)CC [SN-38, 10-Hydroxy-7-ethylcamptothecin, reference compound]
EC50 (U87G cells): 0.0246 µM

O=C(CCCCCCC(=O)Nc1ccccc1)NO [Vorinostat, reference compound]
EC50 (A549 cells [1]): 4.85 µM
EC50 (T98 cells [2]): 12.4 µM

C#CCOc1ccccc1COC(=O)N[C@H]1CC(O[C@H]2C[C@](O)(C(=O)CO)Cc3c(O)c4c(c(O)c32)C(=O)c2c(OC)cccc2C4=O)O[C@@H](C)[C@H]1O (stereo partly shown) [oPOBC-Dox, 2-proparglyoxybenzylcarbamoyl Doxorubicin]
toxigenic effect of prodrug + Pd0 resins (A549 cells [3]): strong toxigenic effect
toxigenic effect of prodrug + Pd0 resins (T98 cells [4]): strong toxigenic effect
toxigenic effect of prodrug + Pd0 resins (DU145 cells): strong toxigenic effect

C#CCOc1ccc(COC(=O)N[C@H]2CC(O[C@H]3C[C@](O)(C(=O)CO)Cc4c(O)c5c(c(O)c43)C(=O)c3c(OC)cccc3C5=O)O[C@@H](C)[C@H]2O)cc1 (stereo partly shown) [pPOBC-Dox, 4-proparglyoxybenzylcarbamoyl Doxorubicin]
toxigenic effect of prodrug + Pd0 resins (A549 cells [3]): strong toxigenic effect
toxigenic effect of prodrug + Pd0 resins (T98 cells [4]): strong toxigenic effect
toxigenic effect of prodrug + Pd0 resins (DU145 cells): strong toxigenic effect
